Data: ChEMBL document CHEMBL2074294, “Differential effects of microsomal enzyme-inducing chemicals on the hepatic expression of rat organic anion transporters, OATP1 and OATP2” (Hepatology, 2001)

Target: T1, Solute carrier organic anion transporter family member 1A4 (Rattus norvegicus, UniProt O35913)
T1 sequence (O35913 whole entry): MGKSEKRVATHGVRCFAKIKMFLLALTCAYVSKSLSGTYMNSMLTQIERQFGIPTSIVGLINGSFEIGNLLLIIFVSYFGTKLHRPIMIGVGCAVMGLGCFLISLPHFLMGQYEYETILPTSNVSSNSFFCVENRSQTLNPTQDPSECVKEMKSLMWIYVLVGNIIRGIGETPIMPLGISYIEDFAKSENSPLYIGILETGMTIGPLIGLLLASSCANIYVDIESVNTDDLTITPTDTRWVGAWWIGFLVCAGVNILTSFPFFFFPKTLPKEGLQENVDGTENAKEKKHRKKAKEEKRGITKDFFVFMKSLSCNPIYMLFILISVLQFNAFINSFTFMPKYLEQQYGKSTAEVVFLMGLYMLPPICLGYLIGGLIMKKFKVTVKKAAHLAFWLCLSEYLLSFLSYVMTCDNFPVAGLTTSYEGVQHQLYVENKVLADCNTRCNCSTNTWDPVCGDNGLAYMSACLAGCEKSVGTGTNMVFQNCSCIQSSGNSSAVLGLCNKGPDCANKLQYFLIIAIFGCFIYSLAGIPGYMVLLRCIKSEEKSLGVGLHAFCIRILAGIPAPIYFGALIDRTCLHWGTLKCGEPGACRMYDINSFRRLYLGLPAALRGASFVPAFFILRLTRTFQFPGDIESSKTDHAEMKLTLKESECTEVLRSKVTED
Test: TP_TRANSPORTER: Western blot
Format: functional

For `Cc1ccc2cc3c(ccc4ccccc43)c3c2c1CC3` [3-METHYLCHOLANTHRENE], the Activity was “inducer [Decrease]”.
